From ChEMBL document CHEMBL1156115, “The design of potent and selective inhibitors of DPP-4: optimization of ADME properties by amide replacements” (Bioorg Med Chem Lett, 2009)
The source made the active and inactive calls. No cut-off for these calls is given here.

Experiments:
[1] = target: Dipeptidyl peptidase 2 (Homo sapiens, UniProt Q9UHL4); assay: Inhibition of DPP7
[2] = target: T1, Prolyl endopeptidase (Homo sapiens, UniProt P48147); assay: Inhibition of human POP expressed in Escherichia coli after 30 mins by continuous fluorescent assay
T1 sequence (P48147 whole entry): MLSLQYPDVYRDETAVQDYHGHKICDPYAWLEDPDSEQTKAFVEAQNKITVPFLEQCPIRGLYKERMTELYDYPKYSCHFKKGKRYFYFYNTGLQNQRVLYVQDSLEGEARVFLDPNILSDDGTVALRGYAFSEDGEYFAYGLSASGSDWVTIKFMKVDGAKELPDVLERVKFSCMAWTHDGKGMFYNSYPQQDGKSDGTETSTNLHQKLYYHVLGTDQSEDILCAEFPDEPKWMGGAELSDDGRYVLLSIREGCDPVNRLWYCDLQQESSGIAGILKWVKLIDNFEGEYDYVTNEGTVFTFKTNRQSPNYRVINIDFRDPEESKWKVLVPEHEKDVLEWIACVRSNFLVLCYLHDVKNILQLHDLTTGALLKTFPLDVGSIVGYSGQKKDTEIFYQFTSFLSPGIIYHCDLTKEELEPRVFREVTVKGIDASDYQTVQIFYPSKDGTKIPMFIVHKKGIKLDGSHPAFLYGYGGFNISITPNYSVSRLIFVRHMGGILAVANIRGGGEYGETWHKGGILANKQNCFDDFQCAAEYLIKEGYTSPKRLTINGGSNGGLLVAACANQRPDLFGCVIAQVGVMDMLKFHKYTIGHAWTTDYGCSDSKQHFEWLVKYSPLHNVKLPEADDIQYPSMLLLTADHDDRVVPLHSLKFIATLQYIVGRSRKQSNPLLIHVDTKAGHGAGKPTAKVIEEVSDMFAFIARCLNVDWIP

[3] = (§1) Apparent permeability from apical to basolateral side of human Caco-2 cells; format: ADME, cell-based
[4] = Apparent volume of distribution in Wistar rat at 1 mg/kg, iv or 3 mg/kg, po; format: ADME, organism-based; settings: in vivo, read-out: Vz
[5] = Half life in human liver microsomes at 3 uM; format: ADME, Microsome
[6] = (§2) Apparent permeability from basolateral to apical side of human Caco-2 cells; format: ADME, cell-based
[7] = Half life in rat liver microsomes at 3 uM; format: ADME, Microsome
[8] = Distribution coefficient, log D of the compound; format: physicochemical; settings: octanol/water
[9] = Oral bioavailability in Wistar rat at 3 mg/kg; format: ADME, organism-based; settings: in vivo
[10] = Half life in Wistar rat at 1 mg/kg, iv or 3 mg/kg, po; format: ADME, organism-based; settings: in vivo
[11] = Clearance in Wistar rat at 1 mg/kg, iv or 3 mg/kg, po; format: ADME, organism-based; settings: in vivo
[12] = target: Dipeptidyl peptidase 4 (Mus musculus) (UniProt P28843); assay: Inhibition of DPP4 in mouse plasma up to 60 mins; format: cell-free
Sequence of Dipeptidyl peptidase 4 (Mus musculus) (P28843 whole entry, looked up): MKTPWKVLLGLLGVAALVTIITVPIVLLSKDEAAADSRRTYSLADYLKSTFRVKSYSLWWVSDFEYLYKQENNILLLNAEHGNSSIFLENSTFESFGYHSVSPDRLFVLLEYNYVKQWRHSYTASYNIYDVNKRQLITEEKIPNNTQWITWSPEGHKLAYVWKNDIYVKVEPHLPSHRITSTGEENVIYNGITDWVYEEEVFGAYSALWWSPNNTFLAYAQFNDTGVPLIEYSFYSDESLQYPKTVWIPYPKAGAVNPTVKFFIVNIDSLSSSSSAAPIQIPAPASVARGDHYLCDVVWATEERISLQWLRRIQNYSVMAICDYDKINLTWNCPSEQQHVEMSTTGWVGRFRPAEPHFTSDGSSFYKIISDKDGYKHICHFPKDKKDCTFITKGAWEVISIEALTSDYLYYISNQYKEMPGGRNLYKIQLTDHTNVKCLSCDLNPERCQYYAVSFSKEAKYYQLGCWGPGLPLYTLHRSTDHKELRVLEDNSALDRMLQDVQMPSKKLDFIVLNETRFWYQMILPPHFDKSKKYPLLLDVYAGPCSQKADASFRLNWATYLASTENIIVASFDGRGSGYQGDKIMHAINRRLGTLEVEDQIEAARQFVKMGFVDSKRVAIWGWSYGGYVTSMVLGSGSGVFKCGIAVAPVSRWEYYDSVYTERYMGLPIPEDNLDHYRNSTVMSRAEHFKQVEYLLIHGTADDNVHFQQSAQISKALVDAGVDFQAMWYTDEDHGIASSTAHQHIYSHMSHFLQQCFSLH

[13] = target: Dipeptidyl peptidase 4 (Mus musculus) (UniProt P28843); assay: Inhibition of DPP4 in mouse plasma up to 180 mins; format: cell-free
[14] = test system: Mus musculus; assay: Antihyperglycemic activity in obese mouse diabetic model assessed as reduction in peak glucose excursion at 3 mg/kg, po administered 30 mins before glucose challenge by oral glucose tolerance test; format: functional, organism-based; design: dose 3 mg/kg
[15] = test system: Caco-2; assay: as §1; format: ADME, cell-based
[16] = test system: Caco-2; assay: as §2; format: ADME, cell-based

| IC50 [1] [µM] | IC50 [2] [µM] | half-life at 3 µM [5] [h] | half-life at 3 µM [7] [h] | logD [8] | Compound | further results |
| --- | --- | --- | --- | --- | --- | --- |
| 2.3 | > 100 |  |  |  | N[C@@H](CC(=O)N1CCC[C@H]1c1nc(-c2cnccn2)no1)Cc1cc(F)c(F)cc1F |  |
| 10 |  | > 2 | 1 | 2.16 | N[C@@H](CC(=O)N1CCC[C@H]1c1noc(C2(C(F)(F)F)CC2)n1)Cc1cc(F)c(F)cc1F | Papp A→B [3]: 23 ×10⁻⁶ cm/s; Vd [4]: 17.5 L/kg; Papp B→A [6]: 49 ×10⁻⁶ cm/s; bioavailability [9]: 43%; half-life [10]: 2.3 h; clearance [11]: 115 mL/min/kg |
| 38 | > 100 |  |  |  | CC1(c2nc([C@@H]3CCCN3C(=O)C[C@H](N)Cc3cc(F)c(F)cc3F)no2)COC1 |  |
| 16 | > 100 | > 2 | 1.7 | 1.46 | CC(C)(F)c1nc([C@@H]2CCCN2C(=O)C[C@H](N)Cc2cc(F)c(F)cc2F)no1 | Papp A→B [3]: 14 ×10⁻⁶ cm/s; inhibition [12]: 70%; Vd [4]: 2.9 L/kg; Papp B→A [6]: 62 ×10⁻⁶ cm/s; inhibition [13]: 56%; bioavailability [9]: 100%; half-life [10]: 1 h; clearance [11]: 31.7 mL/min/kg; Activity [14]: Active |
| 0.886 |  |  |  |  | N[C@@H](CC(=O)N1CCC[C@H]1c1nc(-c2ccccn2)no1)Cc1cc(F)c(F)cc1F |  |
| 23 |  |  |  |  | N[C@@H](CC(=O)N1CCC[C@H]1c1noc(C2(O)CC2)n1)Cc1cc(F)c(F)cc1F |  |
| 11 | > 100 |  |  |  | N[C@@H](CC(=O)N1CCC[C@H]1c1noc(C2CC2)n1)Cc1cc(F)c(F)cc1F |  |
| 3.8 |  | > 2 | 1.18 | 1.61 | N[C@@H](CC(=O)N1CCC[C@H]1c1nc(C2CC2)no1)Cc1cc(F)c(F)cc1F | Papp A→B [3]: 21 ×10⁻⁶ cm/s; Papp B→A [6]: 52 ×10⁻⁶ cm/s |
| 14 |  |  |  |  | N[C@@H](CC(=O)N1CCC[C@H]1c1noc(C2(F)CC2)n1)Cc1cc(F)c(F)cc1F |  |
| 36 | > 100 |  |  |  | CC(C)(C)c1nc([C@@H]2CCCN2C(=O)C[C@H](N)Cc2cc(F)c(F)cc2F)no1 |  |
| 3.8 |  | > 2 | > 2 | 0.96 | CS(=O)(=O)N1CC(c2noc([C@@H]3CCCN3C(=O)C[C@H](N)Cc3cc(F)c(F)cc3F)n2)C1 | Papp [15]: 0.15 ×10⁻⁶ cm/s; Papp [16]: 28 ×10⁻⁶ cm/s |
| 17 |  |  |  |  | CC(=O)N1CC(c2noc([C@@H]3CCCN3C(=O)C[C@H](N)Cc3cc(F)c(F)cc3F)n2)C1 |  |
| 4 | > 100 |  |  |  | N[C@@H](CC(=O)N1CCC[C@H]1c1nc(CC2CC2)no1)Cc1cc(F)c(F)cc1F |  |
| 2 | > 100 | > 2 | > 2 | 1.32 | N[C@@H](CC(=O)N1CCC[C@H]1c1nc(-c2ncc(F)cc2F)no1)Cc1cc(F)c(F)cc1F | Papp A→B [3]: 3 ×10⁻⁶ cm/s; inhibition [12]: 79%; Vd [4]: 17.7 L/kg; Papp B→A [6]: 73 ×10⁻⁶ cm/s; inhibition [13]: 64%; bioavailability [9]: 56%; half-life [10]: 2.4 h; clearance [11]: 100 mL/min/kg; Activity [14]: Active |
| 5.6 | > 100 |  |  |  | N[C@@H](CC(=O)N1CCC[C@H]1c1nc(N2CCOCC2)no1)Cc1cc(F)c(F)cc1F |  |
| 3.2 | > 100 |  |  |  | N[C@@H](CC(=O)N1CCC[C@H]1c1nc(N2CCCC2)no1)Cc1cc(F)c(F)cc1F |  |
| 2.2 |  |  |  |  | N[C@@H](CC(=O)N1CCC[C@H]1c1nc(-c2ncccn2)no1)Cc1cc(F)c(F)cc1F |  |
| 7 | 39 | 1.33 | 0.133 | 1.85 | CC(C)(C)c1noc([C@@H]2CCCN2C(=O)C[C@H](N)Cc2cc(F)c(F)cc2F)n1 | Papp A→B [3]: 20 ×10⁻⁶ cm/s; Vd [4]: 20.5 L/kg; Papp B→A [6]: 49 ×10⁻⁶ cm/s; bioavailability [9]: 3%; half-life [10]: 1.6 h; clearance [11]: 120 mL/min/kg |
| 2.8 |  |  |  |  | N[C@@H](CC(=O)N1CCC[C@H]1c1nc(C2(C(F)(F)F)CC2)no1)Cc1cc(F)c(F)cc1F |  |
